Measured values reported in patent publication US20240002385A1, “PIPERIDINYL-METHYL-PURINE AMINE D-TARTARIC ACID SALTS, CRYSTALLINE FORMS, AND THEIR USE IN TREATING MEDICAL DISEASES AND CONDITIONS” (K36 Therapeutics, Inc., priority 2022, published 2024).
In brackets after ≈: the same amount, converted by molar mass.

Experiments:
Format in all cases: physicochemical
[1] = Hygroscopicity by dynamic vapor sorption; details: transitioned from 5% to 95% relative humidity
Protocol: The title compound was analyzed for hygroscopicity by dynamic vapor sorption. Dynamic vapor sorption was performed using a Q5000SA. The sample (5-15 mg) was loaded into a metallic quartz sample pan, suspended from a microbalance, and exposed to a humidified stream of nitrogen gas. Weight changes were relative to a matching empty reference pan opposite the sample, suspended from the microbalance. The sample was held for a minimum of 10 min at each humidity level and only progressed to the next humidity level if there was <0.002% change in weight between measurements (interval: 5 s) or 60 min had elapsed. The following program was used: • 1. Equilibration at 50% RH • 2. 50% to 5% (50%, 35%, 20%, and 5%) • 3. 5% to 95%(5%, 20%, 35%, 50%, 65%, 80%, and 95%) • 4. 95% to 5% (95%, 80%, 65%, 50%, 35%, 20%, and 5%) • 5. 5% to 50%(5%, 20%, 35%, and 50%).

[2] = Water content by Karl Fischer titration
Protocol: The title compound was analyzed for water content by Karl Fischer (KF) titration, and determined to have a water content of 1.22 wt %. Karl Fischer (KF) titration for water determination was performed using a Mettler Toledo C20S Coulometric KF Titrator equipped with a current generator cell with a diaphragm, and a double-platinum-pin electrode. The range of detection of the instrument is 1 ppm to 5% water. Aquastar™ CombiCoulomat fritless reagent was used in both the anode and cathode compartments. Samples of approximately 0.03-0.10 g were dissolved in the anode compartment and titrated until the solution potential dropped below 100 mV. Hydranal 1 wt % water standard was used for validation prior to sample analysis.

[3] = Water solubility of crystalline form at pH 6.8 and 37° C.; details: aqueous buffer, pH 6.8, 37° C.
[4] = Accelerated stability study (six days, 75% RH, 40° C.)
Protocol: An accelerated stability study was conducted on the crystalline form of (S)-1-((R)-3-amino-1-(4-((6-amino-9H-purin-9-yl)methyl)-6-(2,5-difluoro-4-methoxyphenyl) pyridin-3-yl)piperidin-3-yl)-2,2-difluoroethan-1-ol D-tartaric acid salt, prepared as described in Example 1. Approximately 12 mg of solid was placed into a 4-mL vial, and then the vial was covered with a Kimwipe. The vial was stored for six days inside a stability chamber producing a relative humidity of 75% at 40° C.

[5] = One year stability study (25° C.±2° C., 60%±5% RH); details: 25° C./60% RH
Protocol: A one-year stability study was conducted on the crystalline form of (S)-1-((R)-3-amino-1-(4-((6-amino-9H-purin-9-yl)methyl)-6-(2,5-difluoro-4-methoxyphenyl) pyridin-3-yl)piperidin-3-yl)-2,2-difluoroethan-1-ol D-tartaric acid salt having an XRDP pattern as set forth in Example 4. In particular, an aliquot of the crystalline (S)-1-((R)-3-amino-1-(4-((6-amino-9H-purin-9-yl)methyl)-6-(2,5-difluoro-4-methoxyphenyl) pyridin-3-yl)piperidin-3-yl)-2,2-difluoroethan-1-ol D-tartaric acid salt was stored for 1 year at a temperature of 25° C.±2° C. where the relative humidity was 60%±5%. A sample of the crystalline (S)-1-((R)-3-amino-1-(4-((6-amino-9H-purin-9-yl)methyl)-6-(2,5-difluoro-4-methoxyphenyl) pyridin-3-yl)piperidin-3-yl)-2,2-difluoroethan-1-ol D-tartaric acid salt was analyzed at the following time points in the experiment: 0 days (i.e., at the start of the experiment), 1 month, 3 months, 6 months, 9 months, and 12 months. The following parameters were evaluated at each time point: physical appearance, water content by coulometric Karl Fischer (CKF) determination, purity by ultra-performance liquid chromatography (UPLC), and total amount of related substances. XRPD analysis was performed on a compound sample at time points 0 days and at 12 months.

[6] = Six-month stability study at elevated temperature and relative humidity (40° C.±2° C., 75%±5% RH); details: 40° C./75% RH
Protocol: A six-month stability study was conducted on the crystalline form of (S)-1-((R)-3-amino-1-(4-((6-amino-9H-purin-9-yl)methyl)-6-(2,5-difluoro-4-methoxyphenyl) pyridin-3-yl)piperidin-3-yl)-2,2-difluoroethan-1-ol D-tartaric acid salt having an XRDP pattern as set forth in Example 4. In particular, an aliquot of the crystalline (S)-1-((R)-3-amino-1-(4-((6-amino-9H-purin-9-yl)methyl)-6-(2,5-difluoro-4-methoxyphenyl) pyridin-3-yl)piperidin-3-yl)-2,2-difluoroethan-1-ol D-tartaric acid salt was stored for six months at a temperature of 40° C.±2° C. where the relative humidity was 75%±5%. A sample of the crystalline (S)-1-((R)-3-amino-1-(4-((6-amino-9H-purin-9-yl)methyl)-6-(2,5-difluoro-4-methoxyphenyl) pyridin-3-yl)piperidin-3-yl)-2,2-difluoroethan-1-ol D-tartaric acid salt was analyzed at the following time points in the experiment: 0 days (i.e., at the start of the experiment), 1 month, 3 months, and 6 months. The following parameters were evaluated at each time point: physical appearance, water content by coulometric Karl Fischer (CKF) determination, purity by ultra-performance liquid chromatography (UPLC), and total amount of related substances. XRPD analysis was performed on a compound sample at time points 0 days and at 6 months.

[7] = Analysis of aqueous solubility (water and fasted state simulated intestinal fluid); details: 37° C.; for solubility at 24 h: thermodynamic from solid, read-out: Test Compound Solubility
Protocol: Solubility of test compounds in two different liquids was evaluated: (a) water and (b) fasted state simulated intestinal fluid. Test compounds analyzed were: • crystalline (S)-1-((R)-3-amino-1-(4-((6-amino-9H-purin-9-yl)methyl)-6-(2,5-difluoro-4-methoxyphenyl) pyridin-3-yl)piperidin-3-yl)-2,2-difluoroethan-1-ol D-tartaric acid salt, as set forth in Example 4 (hereinafter “Compound A”); • (S)-1-((R)-3-amino-1-(4-((6-amino-9H-purin-9-yl)methyl)-6-(2,5-difluoro-4-methoxyphenyl) pyridin-3-yl)piperidin-3-yl)-2,2-difluoroethan-1-ol fumaric acid salt (hereinafter “Compound B”); • (S)-1-((R)-3-amino-1-(4-((6-amino-9H-purin-9-yl)methyl)-6-(2,5-difluoro-4-methoxyphenyl) pyridin-3-yl)piperidin-3-yl)-2,2-difluoroethan-1-ol free base (hereinafter “Compound C”).
An aliquot of test compound was placed in the liquid at a temperature of 37° C., and then after 24 hours the concentration of dissolved test compound was determined. pH of the solution at 24 hours was also measured.

[8] = Salt form observations: hydrate formation and hygroscopicity
[9] = fassif, fasted state simulated intestinal fluid
[10] = fasted state simulated intestinal fluid

For `COc1cc(F)c(-c2cc(Cn3cnc4c(N)ncnc43)c(N3CCC[C@](N)([C@H](O)C(F)F)C3)cn2)cc1F.O=C(O)C(O)C(O)C(=O)O` [Compound A, (S)-1-((R)-3-amino-1-(4-((6-amino-9H-purin-9-yl)methyl)-6-(2,5-difluoro-4-methoxyphenyl)pyridin-3-yl)piperidin-3-yl)-2,2-difluoroethan-1-ol D-tartaric acid salt], the “increase in weight in dynamic vapor sorption” value [1] was 4.858%, the “water content by Karl Fischer (KF) titration” value [2] was 1.22 wt % and the solubility at 30 min ([3]; after 30 minutes) was over 2 mg/mL. For the same compound, the solubility at 24 h ([3]; after 24 hours) was over 2 mg/mL, the “XRPD of recovered salt” value ([4]; after six days, 75% relative humidity, 40° C.) was “no change of the crystalline form” and the “purity by HPLC” value ([4]; after the study: six days, 75% relative humidity, 40° C.) was 99.45 area percent. The “purity by HPLC” value ([4]; before the study) was 99.53 area percent, the “API Purity by UPLC” value ([5]; 1 month) was 99.9 % area in LC trace and the “Physical Appearance” value ([5]; 1 month) was “white”. For the same compound, the “Total Amount of Related Substances by UPLC” value (from here on “Total Amount”) ([5]; 1 month) was 0.05 % w/w, the “Water Content by CKF” value ([5]; 1 month) was 0.3 % w/w and the “API Purity by UPLC” value ([5]; 3 months) was 100.0 % area in LC trace. For the same compound, the “Physical Appearance” value ([5]; 3 months) was “white”, the “Total Amount” value ([5]; 3 months) was 0.05 % w/w and the “Water Content by CKF” value ([5]; 3 months) was 0.4 % w/w. The “API Purity by UPLC” value ([5]; 6 months) was 100.0 % area in LC trace, the “Physical Appearance” value ([5]; 6 months) was “white” and the “Total Amount” value ([5]; 6 months) was under 0.05 % w/w. For the same compound, the “Water Content by CKF” value ([5]; 6 months) was 0.3 % w/w, the “API Purity by UPLC” value ([5]; 9 months) was 100.0 % area in LC trace and the “Physical Appearance” value ([5]; 9 months) was “white”. For the same compound, the “Total Amount” value ([5]; 9 months) was under 0.05 % w/w, the “Water Content by CKF” value ([5]; 9 months) was 0.2 % w/w and the “API Purity by UPLC” value ([5]; 12 months) was 100.0 % area in LC trace. The “Physical Appearance” value ([5]; 12 months) was “white”, the “Total Amount” value ([5]; 12 months) was 0.05 % w/w and the “Water Content by CKF” value ([5]; 12 months) was 0.3 % w/w. For the same compound, the “API Purity by UPLC” value ([5]; day 0) was 100.0 % area in LC trace, the “Physical Appearance” value ([5]; day 0) was “white wolid” and the “Total Amount” value ([5]; day 0) was under 0.05 % w/w. The “Water Content by CKF” value ([5]; day 0) was 0.2 % w/w, the “XRPD spectrum after storage versus day 0” value ([5]; stored for 12 months) was “matched the XRPD spectrum obtained on said compound at the beginning of the stability study” and the “API Purity by UPLC” value ([6]; 1 month) was 100.0 % area in LC trace. The “Physical Appearance” value ([6]; 1 month) was “white wolid”, the “Total Amount” value ([6]; 1 month) was 0.05 % w/w and the “Water Content by CKF” value ([6]; 1 month) was 0.4 % w/w. For the same compound, the “API Purity by UPLC” value ([6]; 3 months) was 100.0 % area in LC trace, the “Physical Appearance” value ([6]; 3 months) was “white wolid” and the “Total Amount” value ([6]; 3 months) was 0.05 % w/w. The “Water Content by CKF” value ([6]; 3 months) was 0.4 % w/w, the “API Purity by UPLC” value ([6]; 6 months) was 100.0 % area in LC trace and the “Physical Appearance” value ([6]; 6 months) was “white wolid”. For the same compound, the “Total Amount” value ([6]; 6 months) was under 0.05 % w/w, the “Water Content by CKF” value ([6]; 6 months) was 0.4 % w/w and the “API Purity by UPLC” value ([6]; day 0) was 100.0 % area in LC trace. For the same compound, the “Physical Appearance” value ([6]; day 0) was “white wolid”, the “Total Amount” value ([6]; day 0) was under 0.05 % w/w and the “Water Content by CKF” value ([6]; day 0) was 0.2 % w/w. For the same compound, the “XRPD spectrum after storage versus day 0” value ([6]; stored for 6 months) was “matched the XRPD spectrum obtained on said compound at the beginning of the stability study”, the solubility at 24 h [7, 9] was 1.6 mg/mL and the “pH of Liquid Medium at 24 Hours” value [7, 10] was 5.71. The solubility at 24 h ([7]; water) was 2.4 mg/mL, the “pH of Liquid Medium at 24 Hours” value ([7]; water) was 3.59 and the “hydrate formation / anhydrous form” value [8] was “could be obtained in anhydrous form”. For the same compound, the hygroscopicity ([8]; long-duration stability studies) was “low hygroscopicity”.
With `COc1cc(F)c(-c2cc(Cn3cnc4c(N)ncnc43)c(N3CCC[C@](N)([C@H](O)C(F)F)C3)cn2)cc1F.O=C(O)/C=C/C(=O)O` [Compound B, (S)-1-((R)-3-amino-1-(4-((6-amino-9H-purin-9-yl)methyl)-6-(2,5-difluoro-4-methoxyphenyl)pyridin-3-yl)piperidin-3-yl)-2,2-difluoroethan-1-ol fumaric acid salt] the solubility at 24 h [7, 9] was 0.506 mg/mL, the “pH of Liquid Medium at 24 Hours” value [7, 10] was 6.06 and the solubility at 24 h ([7]; water) was 0.488 mg/mL. The “pH of Liquid Medium at 24 Hours” value ([7]; water) was 4.03 and the “hydrate formation / anhydrous form” value [8] was “observed to form hydrates”.
For `COc1cc(F)c(-c2cc(Cn3cnc4c(N)ncnc43)c(N3CCC[C@](N)([C@H](O)C(F)F)C3)cn2)cc1F` [Compound C, (S)-1-((R)-3-amino-1-(4-((6-amino-9H-purin-9-yl)methyl)-6-(2,5-difluoro-4-methoxyphenyl)pyridin-3-yl)piperidin-3-yl)-2,2-difluoroethan-1-ol free base], the solubility at 24 h [7, 9] was 0.298 mg/mL (≈ 545 µM), the “pH of Liquid Medium at 24 Hours” value [7, 10] was 6.61 and the solubility at 24 h ([7]; water) was 0.0002 mg/mL (≈ 0.366 µM). The “pH of Liquid Medium at 24 Hours” value ([7]; water) was 6.92.
In the case of `COc1cc(F)c(-c2cc(Cn3cnc4c(N)ncnc43)c(N3CCC[C@](N)([C@H](O)C(F)F)C3)cn2)cc1F.Cl` [hydrochloric acid salt], the “hydrate formation / anhydrous form” value [8] is reported as “observed to form hydrates”.
